The text below walks through data of PMC9318782, “Assessments of Ceanothanes Triterpenes as Cholinesterase Inhibitors: An Investigation of Potential Agents with Novel Inspiration for Drug Treatment of Neurodegenerative Diseases” (Metabolites, 2022).

Like-named read-outs stand apart in the source and are kept apart here.

Experiment [1] concerns the target T1, AChE from Electrophorus electricus (Electrophorus electricus, UniProt O42275).
T1 construct: purchased Sigma-Aldrich
The experiment in a line: biochemical. Conditions: AChE from Electrophorus electricus (commercial enzyme); Ellman; Table 1; read-out: IC50 ± SEM, AChE. How it is done: (§1) The Ellman assay was used to test acetylcholinesterase (AChE from Electrophorus electricus, and human blood) and butyrylcholinesterase (BChE from equine serum) inhibition activity. Human blood was drawn using sterilized syringes and stored in BD Vacutainer tubes with heparin as an anticoagulant at 4 °C for 1 h. To lyse the erythrocytes, 1 mL of a 1:50 dilution of the blood sample was prepared with the non-ionic detergent triton X-100. A mixture of the DTNB (125 μL), enzyme solution (25 μL), and compound solution (25 μL) was prepared and incubated at room temperature for 20 min. All the assays were under 0.1 M KH2PO4/K2HPO4 buffer, pH 8.0. The substrate was added to start the enzymatic reaction. […] All measurements were performed fivefold as triplicate. The compounds were assayed in a dilution interval of 15 to 500 μg/mL.
On the technique in general: In Ellman's method for cholinesterases, released thiocholine reacts with DTNB.

In experiment [2] the target is T2, AChE from human blood (Homo sapiens, UniProt P22303).
T2 construct: the enzyme extracted from human blood; from tissue; host or cells: human whole blood, erythrocytes lysed with Triton X-100
T2 sequence (P22303 32-617 isoform P22303-2 limits assumed): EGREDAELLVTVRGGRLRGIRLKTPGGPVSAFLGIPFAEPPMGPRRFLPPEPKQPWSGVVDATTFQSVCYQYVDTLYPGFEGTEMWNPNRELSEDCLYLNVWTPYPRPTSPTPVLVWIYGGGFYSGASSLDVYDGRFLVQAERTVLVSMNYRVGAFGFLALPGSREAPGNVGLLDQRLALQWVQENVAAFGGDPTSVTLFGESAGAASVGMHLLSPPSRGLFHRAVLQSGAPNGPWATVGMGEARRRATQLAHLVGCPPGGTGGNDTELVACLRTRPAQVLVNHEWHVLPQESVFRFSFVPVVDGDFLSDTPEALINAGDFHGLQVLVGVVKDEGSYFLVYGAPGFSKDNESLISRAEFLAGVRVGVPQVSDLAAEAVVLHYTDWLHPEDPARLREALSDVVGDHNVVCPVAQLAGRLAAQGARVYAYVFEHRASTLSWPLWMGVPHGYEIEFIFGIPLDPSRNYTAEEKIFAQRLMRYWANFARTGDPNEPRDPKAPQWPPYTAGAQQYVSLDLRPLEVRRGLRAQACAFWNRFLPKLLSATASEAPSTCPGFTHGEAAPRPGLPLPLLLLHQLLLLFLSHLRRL
Kind of experiment: biochemical. Conditions: AChE obtained from human blood samples; Ellman; read-out: IC50 ± SEM, AChE hb. How it is done: as §1, with “μg/mL. […] The percentage of inhibition was determined as follows: I(%)=(1−Aprobe/Ablank)100” for “μg/mL.”

Experiment [3] has as its target T3, butyrylcholinesterase (BChE from equine serum) (Equus caballus, UniProt P81908).
T3 construct: butyrylcholinesterase (from equine serum) were purchased from Sigma-Aldrich; purchased Sigma-Aldrich; host or cells: equine serum
The experiment in a line: Ellman assay, BChE inhibition. Format: biochemical. On the procedure: as §1, with “μg/mL. […] The percentage of inhibition was determined as follows: I(%)=(1−Aprobe/Ablank)100” for “μg/mL.”

The target in experiment [4] is T4, AChE (Electrophorus electricus, UniProt O42275). Kind of experiment: biochemical. Type of experiment: biochemical. The conditions noted are these: for Inhibition Type: Lineweaver-Burk and Dixon plots. On the procedure: To investigate the inhibition mechanism of the tested compounds on AChE, a kinetic analysis was performed. The experiments were carried out using a combination of four substrate concentrations and three inhibitor concentrations with the view to obtain a double reciprocal plot (Lineweaver–Burk), in which each point is the mean of three different experiments. A parallel control with no inhibitor in the mixture allowed adjusting activities to be measured at various times.
T4 sequence (O42275 24-633): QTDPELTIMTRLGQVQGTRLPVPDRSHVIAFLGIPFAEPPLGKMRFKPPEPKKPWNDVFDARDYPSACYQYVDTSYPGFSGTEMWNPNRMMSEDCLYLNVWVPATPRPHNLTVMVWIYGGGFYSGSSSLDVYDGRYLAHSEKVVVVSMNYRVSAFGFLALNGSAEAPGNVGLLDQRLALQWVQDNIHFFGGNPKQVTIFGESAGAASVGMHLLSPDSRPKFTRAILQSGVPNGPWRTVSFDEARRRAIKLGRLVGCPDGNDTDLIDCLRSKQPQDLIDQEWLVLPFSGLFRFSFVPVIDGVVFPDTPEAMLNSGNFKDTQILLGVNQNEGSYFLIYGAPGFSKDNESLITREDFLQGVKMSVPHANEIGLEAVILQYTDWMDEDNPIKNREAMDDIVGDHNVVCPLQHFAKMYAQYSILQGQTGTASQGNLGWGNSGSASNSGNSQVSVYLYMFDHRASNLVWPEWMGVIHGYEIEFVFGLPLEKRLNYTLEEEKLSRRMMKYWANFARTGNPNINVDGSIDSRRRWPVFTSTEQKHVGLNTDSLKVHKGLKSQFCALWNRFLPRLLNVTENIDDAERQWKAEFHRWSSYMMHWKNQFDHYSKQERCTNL

Experiment [5] addresses T5, PAS of EeAChE (Electrophorus electricus, UniProt O42275).
T5 construct: purchased Sigma-Aldrich
Kind of experiment: Propidium iodide displacement assay. Type of experiment: binding. Conditions: 0.25 h, read-out: % Displacement of Propidium Iodide. On the procedure: […] Propidium iodide is known for ability to specifically binding to the PAS region of AChE.
The percentage inhibition was calculated by the following expression: 100-(IFi/IF0 × 100), where IF1 and IF0 correspond to fluorescence intensities with and without the test compound, respectively. Each assay was carried out in triplicate.

Experiment [6] has as its target T4, AChE. The conditions noted are these: cited from earlier work; for IC50: read-out: IC50, AChE inhibitory activity.
The mark [7] stands for this setting: alkaloids from Esenbeckia leiocarpa ref 40.

T3 sequence (P81908 whole entry): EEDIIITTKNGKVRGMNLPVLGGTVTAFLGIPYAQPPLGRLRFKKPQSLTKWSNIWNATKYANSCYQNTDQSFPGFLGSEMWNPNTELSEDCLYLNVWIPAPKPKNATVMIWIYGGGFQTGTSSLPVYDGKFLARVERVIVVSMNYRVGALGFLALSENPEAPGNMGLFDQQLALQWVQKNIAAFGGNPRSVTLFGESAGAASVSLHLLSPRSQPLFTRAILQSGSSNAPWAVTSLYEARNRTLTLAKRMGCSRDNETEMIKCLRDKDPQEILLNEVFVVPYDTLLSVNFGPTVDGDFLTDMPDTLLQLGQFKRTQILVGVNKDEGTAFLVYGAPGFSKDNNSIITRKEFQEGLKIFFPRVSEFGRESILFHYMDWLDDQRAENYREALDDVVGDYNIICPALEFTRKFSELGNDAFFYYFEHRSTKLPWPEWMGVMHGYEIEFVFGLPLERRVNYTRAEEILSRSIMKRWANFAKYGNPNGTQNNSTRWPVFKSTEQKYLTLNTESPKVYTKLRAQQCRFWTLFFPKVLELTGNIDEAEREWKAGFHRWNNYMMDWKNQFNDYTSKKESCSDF
T5 sequence (O42275 24-633): as the sequence (O42275 24-633) above
T1 sequence (O42275 24-633): as above

By IC50 is commonly meant the concentration that inhibits the measured activity by half. Broadly, the Ki is the dissociation constant of the complex between target and ligand, obtained from inhibition or displacement. `C=C(C)[C@@H]1CC[C@]2(C(=O)O)CC[C@]3(C)C(CCC4[C@@]5(C)C(C=O)=CC(C)(C)C5CC[C@]43C)C12` (stereo partly shown) [Compound 1, Zizyberenalic acid]: the IC50 in experiment [1] is 184 ± 0.7 nM; in experiment [2] it was 215 ± 5 nM; in experiment [3], more than 500000 nM. Further, the Ki in experiment [4] was 46 nM. Moreover, the “Inhibition Type” value in experiment [4] is recorded as “mixed competitive mode inhibition”. Also, the inhibition at 0.75 µM in experiment [5] came out at 19.7 ± 0.8%. The inhibition at 1.5 µM in experiment [5] (1.5 µM compound, EeAChE) is 26.3 ± 1.3%.
As for `C=C(C)[C@@H]1CC[C@]2(C(=O)O)CC[C@]3(C)C(CCC4[C@@]5(C)C(C=O)C(O)C(C)(C)C5CC[C@]43C)C12` (stereo partly shown) [Compound 2, Zizyberanalic acid], the IC50 was 150 ± 0.9 nM in experiment [1], 173 ± 6 nM in experiment [2] and more than 500000 nM in experiment [3]. Also, the Ki in experiment [4] amounted to 28 nM. The “Inhibition Type” value in experiment [4] was “mixed competitive mode inhibition”. Further, the inhibition at 1.5 µM in experiment [5] stood at 23.2 ± 0.8%.
`C=C(C)[C@@H]1CC[C@]2(C(=O)O)CC[C@]3(C)[C@H](CC[C@@H]4[C@@]5(C)[C@@H](C(=O)O)[C@H](O)C(C)(C)[C@@H]5CC[C@]43C)[C@@H]12` [Compound 3, Ceanothic acid]: the results for the IC50 in experiment [1], in experiment [2] and in experiment [3] were 125 ± 0.4 nM, 146 ± 3 nM and more than 500000 nM, respectively. Besides, in experiment [4], the inhibition constant Ki was 55 nM. The “Inhibition Type” value in experiment [4] is “partially competitive”; in experiment [4] (listed as compound 3), “competitive and reversible”. For the same molecule, the inhibition at 0.75 µM in experiment [5] is 34.2 ± 0.6%. In experiment [5] (1.5 µM compound, EeAChE), the inhibition at 1.5 µM stood at 45.6 ± 1.1%.
On to `C=C(C)[C@@H]1CC[C@]2(C(=O)O)CC[C@]3(C(=O)O)[C@H](CC[C@@H]4[C@@]5(C)C=CC(C)(C)[C@@H]5CC[C@]43C)[C@@H]12` [Compound 4, Ceanothenic acid], for which the IC50 in experiment [1] is 188 ± 0.5 nM; in experiment [2], 219 ± 4 nM; in experiment [3] it was more than 500000 nM. In experiment [4], the Ki turned out to be 22 nM. Also, the “Inhibition Type” value in experiment [4] was “mixed competitive mode inhibition”. Moreover, in experiment [5], the inhibition at 0.75 µM is 20.1 ± 1%. In addition, the inhibition at 1.5 µM in experiment [5] (1.5 µM compound, EeAChE) was 26.7 ± 1.3%.
On to `C=C(C)[C@@H]1CC[C@]2(C(=O)O)CC[C@]3(C)[C@H](CC[C@@H]4[C@@]5(C)[C@H](CO)[C@@H](O)C(C)(C)[C@@H]5CC[C@]43C)[C@@H]12` [Compound 5, Ceanothanolic acid], for which the IC50 in experiment [1] was 155 ± 0.1 nM; in experiment [2], 181 ± 0.7 nM; in experiment [3] it was more than 500000 nM. Also, the Ki in experiment [4] worked out at 56 nM. Moreover, the “Inhibition Type” value in experiment [4] is recorded as “mixed competitive mode inhibition”. Besides, the inhibition at 0.75 µM in experiment [5] was 14.5 ± 0.3%. For the same molecule, the inhibition at 1.5 µM in experiment [5] (1.5 µM compound, EeAChE) amounted to 19.3 ± 1.5%.
Consider `C=C(C)[C@@H]1CC[C@]2(C(=O)O)CC[C@]3(C)C(CCC4[C@@]5(C)C(C(=O)O)C(=O)C(C)(C)C5CC[C@]43C)C12` (stereo partly shown) [Compound 6, 3-oxo-ceanothic acid], for which the IC50 in experiment [1] is 172 ± 1.2 nM; in experiment [2], 199 ± 9 nM; in experiment [3], more than 500000 nM. Moreover, in experiment [4], the Ki turned out to be 47 nM. Besides, the “Inhibition Type” value in experiment [4] is listed as “mixed competitive mode inhibition”. For the same molecule, in experiment [5], the inhibition at 0.75 µM was found to be 24.3 ± 0.7%. Also, the inhibition at 1.5 µM in experiment [5] (1.5 µM compound, EeAChE) is 40.5 ± 1.5%.
On to `C=C(C)[C@@H]1CC[C@]2(C(=O)O)CC[C@]3(C)C(CCC4[C@@]5(C)C(C(=O)O)C(OC(C)=O)C(C)(C)C5CC[C@]43C)C12` (stereo partly shown) [Compound 7, 3-O-acetyl-ceanothic acid], for which the IC50 in experiment [1] was 179 ± 0.1 nM; in experiment [2], 207 ± 6 nM; in experiment [3], more than 500000 nM. In addition, the Ki in experiment [4] amounted to 50 nM. Also, in experiment [4], the “Inhibition Type” value is on record as “partially competitive”. The inhibition at 1.5 µM in experiment [5] came out at 32.1 ± 1.3%.
For the molecule `O=c1c(O)c(-c2ccccc2)oc2cc(O)cc(O)c12` [galangin], the IC50 in experiment [6] was 120000 nM.
For `COc1cc2nc3occc3c(OC)c2cc1OC` [kokusaginine], the IC50 in experiment [6] (setting [7]) was 46000 nM.
As to `CCCc1cc(=O)c2ccccc2n1C` [leptomerine], the IC50 in experiment [6] (setting [7]) was 2500 nM.
For the molecule `C[C@H]1[C@H](C)CC[C@]2(C(=O)O)CC[C@]3(C)C(=CC[C@@H]4[C@@]5(C)CC[C@H](O)C(C)(C)[C@@H]5CC[C@]43C)[C@H]12` [ursolic acid], the “mode of AChE inhibition” value in experiment [6] was “competitive/non-competitive”.
